≈ marks a conversion by molar mass, not a printed value.
What was measured:
[1] = Water solubility at 25° C.; conditions: for solubility: water, 25 °C; for water solubility: 25° C.
[2] = in vivo; conditions: rat, po
Protocol: All animals used in this study were adult rats (at least 2.5 months of age).
Male Sprague-Dawley rats having a bodyweight between 250-300 g were randomly assigned to two groups. […] The chemicals were suspended in sesame oil and administrated by single oral gavage at 2 ml/kg. All rats were fasted overnight with free access to water before oral administration of the testing compositions. On the day of dosing, the blood samples were collected at 0 min (prior to dosing), and 0.25, 0.5, 1, 2, 4, 6, 8, and 24 hr post-dosing.
Blood samples were collected from rat jugular veins and transferred into tubes coated with sodium heparin. To obtain plasma, the blood samples were centrifuged at 2,500×g for 15 min at 4° C. and the supernatants were collected and kept frozen in a freezer at −80° C., until they were analyzed.
The plasma concentration of donepezil was determined by LC/MS. The chromatographic separation was carried out on a 5 μm EVO C8 100 Å LC column (100×4.6 mm, Kinetex®). The mobile phase was 0.1% formic acid in water and acetonitrile:methanol=8:2 set as gradient. Flow rate used was 0.3 mL/min. Column temperature was maintained at 40° C. and the injection volume was 30 μL.
The pharmacokinetic parameters were calculated using non-compartmental analysis (NCA) with WinNonlin to assess the systemic exposure of donepezil in rats.

[3] = tested on: MK-801 treated mice; experiment: Open field test, MK-801 induced hyper-locomotion; conditions: for Open-field test, anti-hyperactivity effect (formula [formula] not readable) / Open-field test effect (formula [formula] not readable): acute oral; for Open-field test, anti-hyperactivity effect (formula [formula] not readable): mice; for locomotor activity in MK-801 treated mice: MK-801 0.2 mg/kg i.p.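 On all read-outs here: adult male C57BL/6J mice, locomotion counted as total photobeam breaks over 60 minutes in an open field photobeam activity system.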
Protocol: All mice were tested with open field task.
In this study, the mice were placed in a Plexiglas cage (37.5 cm×21.5 cm×18 cm) under 50-65 lux light intensity. Their spontaneous locomotor activities were measured for 60 minutes using the Photobeam Activity System (PAS)-open field (San Diego Instruments, San Diego, Calif., USA). The total number of photo beam breaks of each mouse was measured as an index of locomotor activity.
The schizophrenia-like behavior, MK801-induced hyperactivity, were tested by open field task.
All mice were tested in an open field task.
The schizophrenia-like behavior, NMDA-hypofunction-induced hyperactivity, were tested by open field task.
The amount of paliperidone administered to Groups 3 and 4 was equal. The schizophrenia-like behavior, MK801-induced hyperactivity, were tested by open field task.
The amount of paliperidone administered to Groups 3 and 4 was equal. The schizophrenia-like behavior, NMDA-hypofunction-induced hyperactivity, were tested by open field task.

[4] = mouse, in vivo, ip, 10 mg/kg
Protocol: The testing compounds were administered to mice either through intraperitoneal (i.p.) injection or oral gavage before analyzing blood glucose levels.
For the acute study, two cohorts of mice were used.
For repeated-dose study, mice were randomly assigned into five groups as listed below. • Group 1: Vehicle control • Group 2: Clz (3 mg/kg) • Group 3: Clz:NA 1:1 salt (4.13 mg/kg) • Group 4: Clz (10 mg/kg) • Group 5: Clz:NA 1:1 salt (13.77 mg/kg)
The night before blood glucose levels were measured, the mice were fasted. Blood glucose levels were measured with a portable glucose meter (Contour® Plus, Bayer AG, Leverkusen, Germany) After waiting for 60 min, the treatments indicated above were administered. FIG. 75 illustrates the experimental design of this study.
Two cohorts of mice were used in this study. In cohort 1, mice were randomly assigned into the five groups listed below: • Group 1: Vehicle control • Group 2: NA (3.94 mg/kg) • Group 3: Olz (10 mg/kg) • Group 4: Olz (10 mg/kg)+NA (3.94 mg/kg) • Group 5: Olz:NA 1:1 salt (13.94 mg/kg)
Dosing occurred 60 min prior to measuring blood glucose levels.
In cohort 2, mice were randomly assigned into the five groups listed below: • Group 1: Vehicle control • Group 2: Olz (5 mg/kg) • Group 3: Olz:NA 1:1 salt (6.97 mg/kg) • Group 4: Olz (10 mg/kg) • Group 5: Olz:NA 1:1 salt (13.94 mg/kg)
The night before the glucose tolerance test, the mice fasted. Blood glucose levels were measured in whole blood that was collected from the mouse's tail vein. Glucose levels were measured with a portable glucose meter (Contour® Plus, Bayer AG, Leverkusen, Germany), with the measurement occurring 60 min after the mice were dosed with the treatments indicated above Immediately following the glucose measurement, all mice were subjected to a glucose tolerance test, which involved an intraperitoneal challenge injection of 1 g/kg of glucose, followed by measuring blood glucose levels at 0, 30, 60 and 120 minutes.

[5] = tested on: mice; experiment: von Frey test, paw withdrawal threshold; type: in vivo, C57BL/6J male mice; conditions: for paw withdrawal threshold compared to vehicle control group / AUC values of von Frey pain threshold compared to vehicle control group / AUC of von Frey pain threshold relative to gabapentin group: mice, single oral dose; for paw withdrawal threshold compared to vehicle control group: gabapentin 20 mg/kg equivalent (salts 192, 106.02, 77.34 mg/kg), 15-180 min; for paw withdrawal threshold compared to vehicle control group / AUC values of von Frey pain threshold compared to vehicle control group: enriched TA 200 mg/kg; for AUC values of von Frey pain threshold compared to vehicle control group: gabapentin 20 mg/kg equivalent; for Pain threshold to time AUC after 120 min: von Frey test, acute oral, 20 mg/kg; for AUC of von Frey pain threshold relative to gabapentin group: same amount of gabapentin (20 mg/kg)
Protocol: The objective of this experiment was to assess the analgesic effects of gabapentin:enriched tannic acid salts in mice. The testing compounds were administrated to mice by oral gavage before von Frey test (a typical assay for pain sensation).
Mice used in this study were randomly assigned into six groups: • Group 1: Vehicle control • Group 2: Enriched TA (200 mg/kg) • Group 3: GBP (20 mg/kg) • Group 4: GBP:enriched TA 1:1 salt (192 mg/kg) • Group 5: GBP:enriched TA 2:1 salt (106.02 mg/kg) • Group 6: GBP:enriched TA 3:1 salt (77.34 mg/kg)
Each mouse in Groups 1-6 received a single, oral dose of 65% PEG400 in ddH2O, enriched tannic acid at 200 mg/kg, gabapentin at 20 mg/kg, gabapentin:enriched tannic acid 1:1 salt (192 mg/kg), gabapentin:enriched tannic acid 2:1 salt (106.02 mg/kg) and gabapentin:enriched tannic acid 3:1 salt (77.34 mg/kg). The amount of gabapentin administered to the mice in Groups 3 to 6 was the same.
Mice were habituated in individual transparent acrylic box on a wire-mesh floor for 30 min before testing. An electronic von Frey apparatus (Bioseb-EVF4S) was used to measure the paw withdrawal thresholds (g) of each mouse before drug administration (baseline) and at 15, 30, 60, 120 and 180 mins after drug administration.

[6] = Carr Index (USP 1174), flowability; type: physicochemical
[7] = GTT, dosage of quetiapine 20 mg/kg
Protocol: For the acute study, mice were randomly assigned into one of the five groups listed below. • Group 1: Vehicle control • Group 2: NA (3.77 mg/kg) • Group 3: Clz (10 mg/kg) • Group 4: Clz (10 mg/kg)+NA (3.77 mg/kg) • Group 5: Clz:NA 1:1 salt (13.77 mg/kg)
For the repeated dose study, two cohorts of mice were used. In cohort 1, mice were randomly assigned into one of the three groups listed below. • Group 1: Vehicle control • Group 2: Clz (10 mg/kg) • Group 3: Clz:NA 1:1 salt (13.77 mg/kg)
In cohort 2, the mice were randomly assigned into one of the three groups listed below. • Group 1: Vehicle control • Group 2: Clz (3 mg/kg) • Group 3: Clz:NA 1:1 salt (4.13 mg/kg)
To assess glucose tolerance, mice were fasted overnight on day 18 (for cohort 1) and on day 35 (for cohort 2), and their blood glucose response to i.p. administration of glucose (2 g/kg) was determined. Blood glucose levels were assessed in the whole blood collected from the tail vein, 60 min after drug administration Immediately following this glucose measurement, all mice were subjected to a glucose tolerance test by receiving an intraperitoneal challenge injection of 2 g/kg of glucose, and blood glucose levels were measured at 0, 30, 60 and 120 minutes.
Mice used in this study were randomly assigned into one of the six following groups: • Group 1: Vehicle control • Group 2: Clz (10 mg/kg) • Group 3: Clz (10 mg/kg)+enriched TA (22.5 mg/kg) • Group 4: Clz (10 mg/kg)+enriched TA (11.3 mg/kg) • Group 5: Clz:enriched TA 2:1 salt (32.5 mg/kg) • Group 6: Clz:enriched TA 4:1 salt (21.3 mg/kg)
One day before the glucose tolerance test, the mice fasted overnight and the blood glucose levels were measured in whole blood collected from the tail vein. Glucose levels were measured using a portable glucose meter (Contour® Plus, Bayer AG, Leverkusen, Germany) 60 min after they were acutely administered with the treatments indicated above Immediately following this glucose measurement, all mice were subjected to a glucose tolerance test by receiving an intraperitoneal challenge injection of 2 g/kg of glucose. Blood glucose levels were measured at 30, 60 and 120 minutes.
Two cohorts of mice were used in this study. […]

[8] = MK801 model, dosage of clozapine 1 mg/kg
[9] = MK801 model, dosage of clozapine 2 mg/kg
[10] = paliperidone 0.06 mg/kg (benzoic acid salt study)
[11] = paliperidone 0.06 mg/kg (nicotinic acid salt study)
[12] = oral paliperidone 0.06 mg/kg or benzoic acid salt 0.076 mg/kg
[13] = oral paliperidone 0.06 mg/kg or nicotinic acid 1:2 salt 0.094 mg/kg
[14] = oral quetiapine 10 mg/kg or nicotinic acid salt […]
[15] = risperidone 10 mg/kg as printed in Table 29
[16] = oral risperidone 0.06 mg/kg or nicotinic acid salt 0.078 mg/kg

CN1CCN(C2=Nc3cc(Cl)ccc3Nc3ccccc32)CC1 [clozapine, reference compound]
solubility [1]: 180 µg/mL (≈ 551 µM) | AUC ([2]; male, Sprague-Dawley, 60 mg/kg): 1320 ng·h/mL | AUC Increased (%) ([2]; male, Sprague-Dawley, 60 mg/kg): 100% | Tmax ([2]; male, Sprague-Dawley, 60 mg/kg): 1 h | half-life ([2]; male, Sprague-Dawley, 60 mg/kg): 336 ± 102 min | Recovery rate (%) ([3]; MK801-treated mice, dosage of clozapine 1 mg/kg (benzoic acid salt study)): 65.1% | Recovery rate (%) [3, 8]: 57% | Recovery rate (%) [3, 9]: 79% | Open-field test, anti-hyperactivity effect (formula [formula] not readable) ([3]; clozapine 1 mg/kg): 18.77%

CN1CCN(C2=Nc3cc(Cl)ccc3Nc3ccccc32)CC1.O=C(O)c1cccnc1 [clozapine:nicotinic acid 1:1 salt]
reduction of clozapine-induced hyperglycemia [4]: 46.8% | T1/2 [2]: 3.2 ± 1.4 h | Tmax [2]: 0.8 h | AUC Increased (%) ([2]; 60 mg/kg): 161.8% | Recovery rate (%) [3, 8]: 86% | Recovery rate (%) [3, 9]: 100%

NCC1(CC(=O)O)CCCCC1 [gabapentin, reference compound]
paw withdrawal threshold compared to vehicle control group [5]: no difference from control group at any time point examined | AUC values of von Frey pain threshold compared to vehicle control group [5]: little to no effect | Pain threshold to time AUC after 120 min [5]: 1.28

Cc1cc2c(s1)Nc1ccccc1N=C2N1CCN(C)CC1 [olanzapine, reference compound]
Recovery rate (%) ([3]; MK801-treated mice, dosage of olanzapine 0.1 mg/kg): 36.8% | Open-field test effect (formula [formula] not readable) ([3]; olanzapine 0.5 mg/kg): 85.8% | Open-field test, anti-hyperactivity effect (formula [formula] not readable) ([3]; olanzapine 0.5 mg/kg): 30.53%

Cc1nc2n(c(=O)c1CCN1CCC(c3noc4cc(F)ccc34)CC1)CCCC2O (stereo not drawn) [paliperidone, reference compound]
Carr Index [6]: 29% | solubility [1]: 290 µg/mL (≈ 680 µM) | Open-field test effect (formula [formula] not readable) [3, 10]: 50.3% | Open-field test effect (formula [formula] not readable) [3, 11]: 50.3% | locomotor activity in MK-801 treated mice [3, 12]: alleviates MK-801 induced hyperactivity | locomotor activity in MK-801 treated mice [3, 13]: alleviates MK-801 induced hyperactivity

Cc1nc2n(c(=O)c1CCN1CCC(c3noc4cc(F)ccc34)CC1)CCCC2O.O=C(O)c1ccccc1 (stereo not drawn) [paliperidone:benzoic acid 1:1 salt, Paliperidone:Benzoic Acid 1:1 Salt]
Carr Index [6]: 13% | water solubility [1]: 10.4 mg/mL | Open-field test effect (formula [formula] not readable) [3, 10]: 85.0% | locomotor activity in MK-801 treated mice [3, 12]: significant decrease in locomotion activity, compared with paliperidone group

Cc1nc2n(c(=O)c1CCN1CCC(c3noc4cc(F)ccc34)CC1)CCCC2O.O=C(O)c1cccnc1.O=C(O)c1cccnc1 (stereo not drawn) [paliperidone:nicotinic acid 1:2 salt]
Carr Index [6]: 29% | water solubility [1]: 137.3 mg/mL | Open-field test effect (formula [formula] not readable) [3, 11]: 89.7% | locomotor activity in MK-801 treated mice [3, 13]: significant decreases in locomotion activity, compared with paliperidone group

OCCOCCN1CCN(C2=Nc3ccccc3Sc3ccccc32)CC1 [quetiapine, reference compound]
Open-field test effect (formula [formula] not readable) ([3]; quetiapine 10 mg/kg): 8.7% | locomotor activity in MK-801 treated mice [3, 14]: alleviates MK-801 induced hyperactivity

O=C(O)/C=C/C(=O)O.OCCOCCN1CCN(C2=Nc3ccccc3Sc3ccccc32)CC1 [quetiapine:fumaric acid 1:1 salt, reference compound]
Carr Index [6]: 33%

O=C(O)c1cccnc1.OCCOCCN1CCN(C2=Nc3ccccc3Sc3ccccc32)CC1 [quetiapine:nicotinic acid 1:1 salt]
Carr Index [6]: 20% | water solubility [1]: 262 mg/mL | Blood glucose level compared to vehicle after 120 min [7]: 1.00 | Open-field test effect (formula [formula] not readable) ([3]; quetiapine 10 mg/kg): 53.1% | locomotor activity in MK-801 treated mice [3, 14]: significant decrease in locomotion activity, compared with quetiapine group

Cc1nc2n(c(=O)c1CCN1CCC(c3noc4cc(F)ccc34)CC1)CCCC2 [risperidone, reference compound]
solubility [1]: < 5 µg/mL | Open-field test effect (formula [formula] not readable) [3, 15]: 48.7% | locomotor activity in MK-801 treated mice [3, 16]: alleviates MK-801 induced hyperactivity

Cc1nc2n(c(=O)c1CCN1CCC(c3noc4cc(F)ccc34)CC1)CCCC2.O=C(O)c1cccnc1 [risperidone:nicotinic acid 1:1 salt, resperidone:nicotinic acid 1:1 salt]
water solubility [1]: 2170.77 mg/mL | Open-field test effect (formula [formula] not readable) [3, 15]: 80.1% | locomotor activity in MK-801 treated mice [3, 16]: higher potency to MK-801-induced hyperactivity

gabapentin:enriched tannic acid 1:1 salt
paw withdrawal threshold compared to vehicle control group [5]: significantly higher at 60 and 120 min | AUC values of von Frey pain threshold compared to vehicle control group [5]: significantly higher | AUC of von Frey pain threshold relative to gabapentin group [5]: about twice as high as in gabapentin group

gabapentin:enriched tannic acid 2:1 salt
paw withdrawal threshold compared to vehicle control group [5]: significantly higher at 30 min

gabapentin:enriched tannic acid 3:1 salt
paw withdrawal threshold compared to vehicle control group [5]: significantly higher at 30, 60 and 120 min after administration | AUC values of von Frey pain threshold compared to vehicle control group [5]: significantly higher | AUC of von Frey pain threshold relative to gabapentin group [5]: about twice as high as in gabapentin group | Pain threshold to time AUC after 120 min [5]: 2.80

olanzapine:enriched tannic acid 2:1 salt
Open-field test, anti-hyperactivity effect (formula [formula] not readable) ([3]; olanzapine 0.5 mg/kg): 112.82%

olanzapine:pantothenic acid 5:1 salt
Open-field test effect (formula [formula] not readable) ([3]; olanzapine 0.5 mg/kg): 101.0% | locomotor activity in MK-801 treated mice ([3]; oral olanzapine 0.5 mg/kg or 5:1 salt 0.547 mg/kg): higher potency to MK-801-induced hyperactivity

Reference: patent US12714711B2, “Salts of neuroceuticals and uses thereof” (priority 2020, dated 2026)
